Data as given in patent US20200239530A1, “COMPOUNDS AND METHODS OF MODULATING PROTEIN DEGRADATION” (Vividion Therapeutics, Inc., priority 2017, published 2020).

Experiments:
Assay in all cases: Cysteine liganding, probe competition
Type in all cases: binding
[1] = biological target: T1, DIP2A Disco-interacting protein 2 homolog A (Homo sapiens, UniProt Q14689); conditions: for Liganded: DIP2A Res# 6, uniprot Q14689
T1 construct: 200 μL of lysate containing 5 mg/ml proteome was treated with 2 μL of 100× compound stock; endogenous in cells
How it was run: (§1)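 Probe competition in native proteome: 5 mg/ml lysate, compound 1 hr 25° C, then desthiobiotin iodoacetamide (10 mM stock) 1 hr 25° C; acetone ppt, urea/DTT reduction, iodoacetamide alkylation, trypsin, streptavidin pull-down.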

[2] = biological target: T2, KBTBD8 Kelch repeat and BTB domain-containing protein 8 (Homo sapiens, UniProt Q8NFY9); conditions: for 100 Max / 100 ave / 500 Max / 500 ave: uniprot Q8NFY9
T2 construct: Cells were resuspended in cold PBS on ice and sonicated with a probe sonicator to achieve lysis; endogenous in cells
T2 sequence (Q8NFY9 1-601): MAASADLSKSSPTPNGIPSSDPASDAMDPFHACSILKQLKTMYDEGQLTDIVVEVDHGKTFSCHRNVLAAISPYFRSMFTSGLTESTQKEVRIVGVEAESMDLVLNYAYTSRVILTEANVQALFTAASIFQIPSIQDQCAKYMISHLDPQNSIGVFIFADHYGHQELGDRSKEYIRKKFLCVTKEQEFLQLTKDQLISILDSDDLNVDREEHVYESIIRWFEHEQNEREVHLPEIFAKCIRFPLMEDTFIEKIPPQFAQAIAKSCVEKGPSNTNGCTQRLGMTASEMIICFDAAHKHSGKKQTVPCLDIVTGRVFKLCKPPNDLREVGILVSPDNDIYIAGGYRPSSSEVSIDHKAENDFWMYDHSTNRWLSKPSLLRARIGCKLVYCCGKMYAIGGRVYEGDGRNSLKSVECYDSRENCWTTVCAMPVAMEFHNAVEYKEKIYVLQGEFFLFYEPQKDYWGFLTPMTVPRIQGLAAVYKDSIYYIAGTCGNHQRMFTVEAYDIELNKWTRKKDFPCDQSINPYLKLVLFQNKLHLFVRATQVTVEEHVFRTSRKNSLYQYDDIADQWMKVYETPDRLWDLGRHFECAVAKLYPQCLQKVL
How it was run: as §1

[3] = biological target: T3, ANKRD54 Ankyrin repeat domain-containing protein 54 (Homo sapiens, UniProt Q6NXT1)
T3 construct: 200 μL of lysate containing 5 mg/ml proteome was treated with 2 μL of 100× compound stock; endogenous in cells
How it was run: as §1

[4] = biological target: T4, HADHB Trifunctional enzyme subunit beta, mitochondrial (Homo sapiens, UniProt P55084)
T4 construct: Cells were resuspended in cold PBS on ice and sonicated with a probe sonicator to achieve lysis; endogenous in cells
How it was run: as §1

T4 sequence (P55084 34-474): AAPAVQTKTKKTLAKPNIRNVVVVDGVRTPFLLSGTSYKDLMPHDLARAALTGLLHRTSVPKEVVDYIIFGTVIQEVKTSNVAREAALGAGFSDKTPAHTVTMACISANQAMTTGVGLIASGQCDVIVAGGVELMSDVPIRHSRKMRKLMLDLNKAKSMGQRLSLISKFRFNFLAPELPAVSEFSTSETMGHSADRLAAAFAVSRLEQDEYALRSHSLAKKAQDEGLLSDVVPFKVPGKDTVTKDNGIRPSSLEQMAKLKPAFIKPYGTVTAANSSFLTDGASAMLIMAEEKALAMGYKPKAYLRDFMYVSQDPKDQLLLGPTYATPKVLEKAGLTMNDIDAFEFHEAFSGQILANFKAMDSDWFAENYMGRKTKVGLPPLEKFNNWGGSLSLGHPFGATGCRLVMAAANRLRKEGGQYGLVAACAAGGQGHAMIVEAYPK
T4 sequence (P40939 37-763 partner): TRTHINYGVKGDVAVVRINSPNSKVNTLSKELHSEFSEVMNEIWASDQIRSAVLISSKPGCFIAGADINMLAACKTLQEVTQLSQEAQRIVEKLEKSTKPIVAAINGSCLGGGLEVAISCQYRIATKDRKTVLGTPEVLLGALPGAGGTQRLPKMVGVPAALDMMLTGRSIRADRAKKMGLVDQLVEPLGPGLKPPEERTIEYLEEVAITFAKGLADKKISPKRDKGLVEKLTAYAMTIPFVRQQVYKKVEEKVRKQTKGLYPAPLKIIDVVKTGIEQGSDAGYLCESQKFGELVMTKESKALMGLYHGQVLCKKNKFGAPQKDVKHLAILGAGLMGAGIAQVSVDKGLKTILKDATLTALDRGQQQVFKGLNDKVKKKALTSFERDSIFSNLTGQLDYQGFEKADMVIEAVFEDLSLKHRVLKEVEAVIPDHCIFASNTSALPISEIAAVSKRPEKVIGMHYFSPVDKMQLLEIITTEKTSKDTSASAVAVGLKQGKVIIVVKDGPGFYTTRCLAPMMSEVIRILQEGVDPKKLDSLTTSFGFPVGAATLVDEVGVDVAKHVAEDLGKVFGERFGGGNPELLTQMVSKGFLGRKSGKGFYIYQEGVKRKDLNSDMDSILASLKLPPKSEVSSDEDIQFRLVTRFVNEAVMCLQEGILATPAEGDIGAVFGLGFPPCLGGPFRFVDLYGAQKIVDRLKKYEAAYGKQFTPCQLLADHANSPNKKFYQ
T3 sequence (Q6NXT1 whole entry, the tested form may be a part): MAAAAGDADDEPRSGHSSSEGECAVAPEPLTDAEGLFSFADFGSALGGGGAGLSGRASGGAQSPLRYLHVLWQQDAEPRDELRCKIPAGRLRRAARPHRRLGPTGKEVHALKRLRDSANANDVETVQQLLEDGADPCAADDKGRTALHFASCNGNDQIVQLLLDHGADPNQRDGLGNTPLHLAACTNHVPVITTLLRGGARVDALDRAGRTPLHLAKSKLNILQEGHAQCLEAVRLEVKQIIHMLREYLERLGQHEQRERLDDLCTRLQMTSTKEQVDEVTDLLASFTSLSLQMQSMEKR
T1 sequence (Q14689 whole entry): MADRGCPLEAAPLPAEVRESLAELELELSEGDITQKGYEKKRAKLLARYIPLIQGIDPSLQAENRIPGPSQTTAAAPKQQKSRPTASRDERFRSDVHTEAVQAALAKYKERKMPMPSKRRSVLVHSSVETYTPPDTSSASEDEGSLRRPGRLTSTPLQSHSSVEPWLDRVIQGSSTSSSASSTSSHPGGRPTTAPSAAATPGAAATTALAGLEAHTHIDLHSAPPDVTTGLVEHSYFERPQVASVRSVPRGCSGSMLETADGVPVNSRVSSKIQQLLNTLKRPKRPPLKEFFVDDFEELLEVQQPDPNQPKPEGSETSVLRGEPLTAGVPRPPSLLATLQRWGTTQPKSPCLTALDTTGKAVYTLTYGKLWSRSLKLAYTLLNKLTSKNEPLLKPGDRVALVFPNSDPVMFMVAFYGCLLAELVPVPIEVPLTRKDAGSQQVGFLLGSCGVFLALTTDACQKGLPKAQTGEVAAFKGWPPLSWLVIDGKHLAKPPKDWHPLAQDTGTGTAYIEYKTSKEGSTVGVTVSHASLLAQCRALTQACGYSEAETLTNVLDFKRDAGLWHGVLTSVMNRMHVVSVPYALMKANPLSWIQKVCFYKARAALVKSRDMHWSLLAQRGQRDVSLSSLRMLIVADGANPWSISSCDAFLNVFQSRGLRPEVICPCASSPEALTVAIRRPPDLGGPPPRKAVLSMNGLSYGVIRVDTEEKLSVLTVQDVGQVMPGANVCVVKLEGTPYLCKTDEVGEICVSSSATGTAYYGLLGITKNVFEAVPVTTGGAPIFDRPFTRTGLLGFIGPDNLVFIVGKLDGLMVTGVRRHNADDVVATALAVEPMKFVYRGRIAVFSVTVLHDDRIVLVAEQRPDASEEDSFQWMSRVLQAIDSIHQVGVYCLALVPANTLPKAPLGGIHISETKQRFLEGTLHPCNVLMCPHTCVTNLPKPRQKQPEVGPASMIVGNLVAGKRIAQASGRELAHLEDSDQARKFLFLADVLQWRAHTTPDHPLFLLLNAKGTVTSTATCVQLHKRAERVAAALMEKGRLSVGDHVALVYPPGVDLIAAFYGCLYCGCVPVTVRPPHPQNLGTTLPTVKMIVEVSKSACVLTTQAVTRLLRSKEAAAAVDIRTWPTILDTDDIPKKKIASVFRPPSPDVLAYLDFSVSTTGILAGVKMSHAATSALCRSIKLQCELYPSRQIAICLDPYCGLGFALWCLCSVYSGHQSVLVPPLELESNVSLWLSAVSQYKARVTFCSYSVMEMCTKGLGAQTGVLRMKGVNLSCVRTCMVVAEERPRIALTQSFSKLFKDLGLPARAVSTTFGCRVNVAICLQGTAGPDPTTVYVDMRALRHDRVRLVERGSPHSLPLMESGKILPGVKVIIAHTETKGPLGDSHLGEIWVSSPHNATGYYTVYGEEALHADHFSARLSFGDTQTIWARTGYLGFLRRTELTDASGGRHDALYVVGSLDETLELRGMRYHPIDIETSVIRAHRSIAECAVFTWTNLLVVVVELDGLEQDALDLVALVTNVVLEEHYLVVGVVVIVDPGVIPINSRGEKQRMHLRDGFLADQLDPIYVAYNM

O=C(CCl)Nc1cc(C(F)(F)F)cc(C(F)(F)F)c1 [KBO3]
Liganded [1]: YES
100 Max ([1]; uniprot Q14689): 39.34
100 ave ([1]; uniprot Q14689): 39.34
500 Max ([1]; uniprot Q14689): 91.21
500 ave ([1]; uniprot Q14689): 91.21
100 Max [2]: 5.3
100 ave [2]: −7.4
500 Max [2]: 21.5
500 ave [2]: 21.5
100 Max ([3]; uniprot Q6NXT1): 7.02
100 ave ([3]; uniprot Q6NXT1): −0.72
500 Max ([3]; uniprot Q6NXT1): 45.29
500 ave ([3]; uniprot Q6NXT1): 44.21
100 Max ([4]; uniprot P55084): 26.24
100 ave ([4]; uniprot P55084): 15.245
500 Max ([4]; uniprot P55084): 64.33
500 ave ([4]; uniprot P55084): 60.9

COc1ccc2c(c1)CCCN2C(=O)CCl [KB02]
Liganded [1]: YES
Liganded ([2]; KBTBD8 Res# 181, uniprot Q8NFY9): YES
100 Max [2]: 38.4
100 ave [2]: 36.7
500 Max [2]: 79.2
500 ave [2]: 79.2
Liganded ([3]; ANKRD54 Res# 230, uniprot Q6NXT1): YES
Liganded ([4]; HADHB Res# 458, uniprot P55084): YES
